Results: patent US8007526B2, “Difunctionalized aromatic compounds and polymers therefrom” (Bezwada Biomedical, LLC, priority 2005, dated 2011)

Assay: In vitro hydrolysis in Aldrich buffer at 100° C., monitored by TLC for disappearance of starting material
Type: physicochemical
Excerpt: In Vitro Hydrolysis of Functionalized Aromatics
A compound and a polymer of the present invention were examined for their rates of hydrolysis as described below.

## COC(=O)COC(=O)COc1ccc(C(=O)OCC(=O)OC)cc1 [Example 14, 4-Methoxycarbonylmethoxycarbonylmethoxy-benzoic acid methoxycarbonyl methyl ester]
100 mg in 10 mL Aldrich pH 7.4 buffer
  Hydrolyzed in (time to hydrolysis): Hydrolyzed in 26.5 hours
100 mg in 10 mL Aldrich pH 9 buffer, 1% solution
  Hydrolyzed in (time to hydrolysis): Hydrolyzed in 5 hours
